According to patent publication US20230390402A1, “IONIZABLE CATIONIC LIPID ANALOG MATERIAL AND USE THEREOF AS DRUG DELIVERY CARRIER” (GUANGZHOU LIDE BIOMEDICINE TECHNOLOGY CO., LTD., priority 2021, published 2023):

Columns and labels:
DC 2.4 cells = test: Transfection of eGFP-expressing mRNA in DC 2.4 cells (FCM and LSCM); format: cell-based, mouse; conditions: material 0.25-2 μg/well, mRNA 0.2 μg/well, 24 h, compared with Lipofectamine 2000
Method: In this experiment, with eGFP-mRNA as model mRNA, an mRNA transfection efficiency of a cationic lipid analog material in DC 2.4 cells was detected. A specific operation method was as follows:
DC 2.4 cells were inoculated in a 48-well plate and cultured in an incubator for 12 h; each of different cationic lipid analog materials (0.25 μg/well to 2 μg/well) was mixed with eGFP-expressing mRNA (0.2 μg/well) in 20 μL of a sodium acetate buffer (25 mM, pH 5.2), and resulting mixtures each were allowed to stand for 10 min and then diluted with 230 μL of a Opti-MEM medium to obtain mRNA-loaded complex particle solutions; a medium for the DC 2.4 cells in the plate was removed, then the DC 2.4 cells were washed once with PBS, and the complex particle solutions each were added; and the cells were cultured for 24 h, an mRNA transfection efficiency in cells was observed by FCM and LSCM. A commercial gene transfection reagent Lipofectamine 2000 was adopted as a positive control.

HeLa cells [1] = test: Transfection of luciferase-expressing plasmid DNA in HeLa cells; format: cell-based; conditions: 24 h, compared with Lipofectamine 2000
Method: In this example, with luciferase-expressing plasmid DNA as a reporter gene, a gene transfection efficiency of a cationic lipid analog material in HeLa cells was detected. A specific operation method was as follows: HeLa cells were inoculated in a 96-well plate and cultured in an incubator for 12 h; each of different cationic lipid analog materials was mixed with luciferase-expressing plasmid DNA (0.5 μg) in 40 μL of a sodium acetate buffer (25 mM, pH 5.2), and resulting mixtures each were allowed to stand for 10 min and then diluted with 460 μL of a Opti-MEM medium to obtain plasmid DNA-loaded cationic lipid analog complex particle solutions; a medium for the HeLa cells in the plate was removed, then the HeLa cells were washed once with PBS, and the complex particle solutions each were added in a volume of 125 μL; the cells were further cultured for 24 h, then a resulting culture supernatant was discarded, and the cells were fully lysed; and a substrate was added at 50 μl/well, and an expression level of luciferase was detected by a multi-mode microplate reader.

HeLa cells [2] = test: Transfection of GFP-expressing plasmid DNA in HeLa cells (FCM); format: cell-based; conditions: material 0.25-8 μg/well, plasmid DNA 0.5 μg/well, 24 h, compared with Lipofectamine 2000
Method: In this experiment, with GFP-expressing plasmid DNA as a reporter gene, a gene transfection efficiency of a cationic lipid analog material in HeLa cells was detected. A specific method was as follows:
HeLa cells were inoculated in a 24-well plate and cultured in an incubator for 12 h; each of different cationic lipid analog materials—(0.25 μg/well to 8 μg/well) was mixed with GFP-expressing plasmid DNA (0.5 μg/well) in 40 μL of a sodium acetate buffer (25 mM, […] resulting mixtures each were allowed to stand for 10 min and then diluted with 460 μL of a Opti-MEM medium to obtain plasmid DNA-loaded cationic lipid analog complex particle solutions; a medium for the HeLa cells in the plate was removed, then the HeLa cells were washed once with PBS, and the complex particle solutions each were added; and the cells were further cultured for 24 h, and then a plasmid DNA transfection efficiency in cells was analyzed by FCM. A commercial gene transfection reagent Lipofectamine 2000 was adopted as a positive control.

| Compound | mRNA transfection efficiency (eGFP-mRNA) (DC 2.4 cells) | transfection efficiency of luciferase-expressing plasmid DNA (luciferase expression) (HeLa cells [1]) | transfection efficiency of GFP-expressing plasmid DNA (positive rate) (HeLa cells [2]) |
| --- | --- | --- | --- |
| CCCCCCCCCCCCCCCCCC(=O)N(CCCN(C)C)C(C(=O)NCCCCCCNC(=O)C(C(C)C)N(CCCN(C)C)C(=O)CCCCCCCCCCCCCCCCC)C(C)C (stereo not shown) [I1R2C18A1] | equivalent to or higher than |  |  |
| CCCCCCCCCCCCCCCC(=O)N(CCC1CCCN1C)C(C(=O)NCCCCCCNC(=O)C(C(C)C)N(CCC1CCCN1C)C(=O)CCCCCCCCCCCCCCC)C(C)C (stereo not shown) [I1R11C16A1] | equivalent to or higher than |  |  |
| CCCCCCCCCCCCCCCC(=O)N(CCCN(C)C)C(C(=O)NCCCCCCNC(=O)C(C(C)C)N(CCCN(C)C)C(=O)CCCCCCCCCCCCCCC)C(C)C (stereo not shown) [I1R2C16A1] | equivalent to or higher than |  |  |
| CCCCCCCC/C=C\CCCCCCCC(=O)N(CCN(C)C)C(C(=O)NCCOCCOCCNC(=O)C(C(C)C)N(CCN(C)C)C(=O)CCCCCCC/C=C\CCCCCCCC)C(C)C (stereo not shown) [I2R1C18-1A1] | equivalent to or higher than | equivalent to or higher than | equivalent to or higher than |
| CCCCC/C=C\C/C=C\CCCCCCCC(=O)N(CCCN(C)C)C(C(=O)NCCCCCCNC(=O)C(C(C)C)N(CCCN(C)C)C(=O)CCCCCCC/C=C\C/C=C\CCCCC)C(C)C (stereo not shown) [I1R2C18-2A1] | equivalent to or higher than |  | equivalent to or higher than |
| CCCCCCCCCCCCCCCCCCN(CCC1CCCN1C)C(C(=O)NCCOCCOCCNC(=O)C(C(C)C)N(CCC1CCCN1C)C(=O)CCCCCCCCCCCCCCCCC)C(C)C (stereo not shown) [I2R11C18A1] | equivalent to or higher than |  | equivalent to or higher than |
| CCCCCCCCCCCCCCCCCC(=O)C(CCCN(CC)CC)C(C(=O)NCCOCCOCCNC(=O)C(C(C)C)N(CCCN(CC)CC)C(=O)CCCCCCCCCCCCCCCCC)C(C)C (stereo not shown) [I2R3C18A1] | equivalent to or higher than | equivalent to or higher than | equivalent to or higher than |
| CCCCC/C=C\C/C=C\CCCCCCCC(=O)N(CCC1CCCN1C)C(C(=O)NCCOCCOCCNC(=O)C(C(C)C)N(CCC1CCCN1C)C(=O)CCCCCCC/C=C\C/C=C\CCCCC)C(C)C (stereo not shown) [I2R11C18-2A1] | equivalent to or higher than | equivalent to or higher than | equivalent to or higher than |
| CCCCCCCC/C=C\CCCCCCCC(=O)N(CCC1CCCN1C)C(C(=O)NCCOCCOCCNC(=O)C(C(C)C)N(CCC1CCCN1C)C(=O)CCCCCCC/C=C\CCCCCCCC)C(C)C (stereo not shown) [I2R11C18-1A1] | equivalent to or higher than |  | equivalent to or higher than |
| CCCCCCCCCCCCCC(=O)N(CCCN(C)C)C(C(=O)NCCOCCOCCNC(=O)C(C(C)C)N(CCCN(C)C)C(=O)CCCCCCCCCCCCC)C(C)C (stereo not shown) [I2R2C14A1] | equivalent to or higher than |  | equivalent to or higher than |
| CCCCCCCCCCCCCC(=O)N(CCC1CCCN1C)C(C(=O)NCCCCCCNC(=O)C(C(C)C)N(CCC1CCCN1C)C(=O)CCCCCCCCCCCCC)C(C)C (stereo not shown) [I1R11C14A1] | equivalent to or higher than | equivalent to or higher than | equivalent to or higher than |
| CCCCCCCCCCCCCCN(CCC1CCCN1C)C(C(=O)NCCOCCOCCNC(=O)C(C(C)C)N(CCC1CCCN1C)C(=O)CCCCCCCCCCCCC)C(C)C (stereo not shown) [I2R11C14A1] | equivalent to or higher than |  | equivalent to or higher than |
| CCCCC/C=C\C/C=C\CCCCCCCC(=O)N(CCN(C)C)C(C(=O)NCCOCCOCCNC(=O)C(C(C)C)N(CCN(C)C)C(=O)CCCCCCC/C=C\C/C=C\CCCCC)C(C)C (stereo not shown) [I2R1C18-2A1] |  |  | equivalent to or higher than |
| CCCCCCCCCCCCCCCC(=O)N(CCN(C)C)C(C(=O)NCCOCCOCCNC(=O)C(C(C)C)N(CCN(C)C)C(=O)CCCCCCCCCCCCCCC)C(C)C (stereo not shown) [I2R1C16A1] | equivalent to or higher than | equivalent to or higher than | equivalent to or higher than |
| CCCCCCCCCCCCCC(=O)N(CCN(C)C)C(C(=O)NCCOCCOCCNC(=O)C(C(C)C)N(CCN(C)C)C(=O)CCCCCCCCCCCCC)C(C)C (stereo not shown) [I2R1C14A1] | equivalent to or higher than | equivalent to or higher than | equivalent to or higher than |
| CCCCCCCCCCCCCC(=O)C(CCCN(CC)CC)C(C(=O)NCCOCCOCCNC(=O)C(C(C)C)N(CCCN(CC)CC)C(=O)CCCCCCCCCCCCC)C(C)C (stereo not shown) [I2R3C14A1] | equivalent to or higher than |  |  |
| CCCCCCCCCCCCCC(=O)N(CCCCN(C)C)C(C(=O)NCCCCCCNC(=O)C(C(C)C)N(CCCN(C)C)C(=O)CCCCCCCCCCCCC)C(C)C (stereo not shown) [I1R2C14A1] | equivalent to or higher than | equivalent to or higher than | equivalent to or higher than |
| CCCCCCCC/C=C\CCCCCCCC(=O)N(CCCN(C)C)C(C(=O)NCCCCCCNC(=O)C(C(C)C)N(CCCN(C)C)C(=O)CCCCCCC/C=C\CCCCCCCC)C(C)C (stereo not shown) [I1R2C18-1A1] | equivalent to or higher than |  |  |
| CCCCCCCCCCCCCCCCN(CCC1CCCN1C)C(C(=O)NCCOCCOCCNC(=O)C(C(C)C)N(CCC1CCCN1C)C(=O)CCCCCCCCCCCCCCC)C(C)C (stereo not shown) [I2R11C16A1] | equivalent to or higher than |  | equivalent to or higher than |
| CCCCCCCCCCCCCCCC(=O)C(CCCN(CC)CC)C(C(=O)NCCOCCOCCNC(=O)C(C(C)C)N(CCCN(CC)CC)C(=O)CCCCCCCCCCCCCCC)C(C)C (stereo not shown) [I2R3C16A1] | equivalent to or higher than | equivalent to or higher than | equivalent to or higher than |
| CCCCCCCCCCCCCCCCCC(=O)N(CCC1CCCN1C)C(C(=O)NCCCCCCNC(=O)C(C(C)C)N(CCC1CCCN1C)C(=O)CCCCCCCCCCCCCCCCC)C(C)C (stereo not shown) [I1R11C18A1] | equivalent to or higher than |  |  |
